# Data from patent US5916586A, “Personal cleansing system comprising polymeric diamond-mesh bath sponge and liquid cleanser with deodorant composition” (priority 1996, dated 1999).
# Legend:
# [1] = Morpholine test: depression of partial vapor pressure of morpholine beyond Raoult's Law (headspace GC); conditions: morpholine 0.25 g + material 1 g, 37° C., 30 minutes equilibrium, headspace gas chromatography
# lipoxidase (ECI.13.1.13) = biological target: T1, lipoxidase (ECI.13.1.13) (Glycine max, UniProt P08170); assay: Lipoxidase test: inhibition of oxidation of linoleic acid by lipoxidase; assay type: biochemical; conditions: test substrate made with 0.5% by weight solution of material in ethanol, borate buffer pH 9.0, increase in OD at 234 nm
# T1 sequence (P08170 1-839): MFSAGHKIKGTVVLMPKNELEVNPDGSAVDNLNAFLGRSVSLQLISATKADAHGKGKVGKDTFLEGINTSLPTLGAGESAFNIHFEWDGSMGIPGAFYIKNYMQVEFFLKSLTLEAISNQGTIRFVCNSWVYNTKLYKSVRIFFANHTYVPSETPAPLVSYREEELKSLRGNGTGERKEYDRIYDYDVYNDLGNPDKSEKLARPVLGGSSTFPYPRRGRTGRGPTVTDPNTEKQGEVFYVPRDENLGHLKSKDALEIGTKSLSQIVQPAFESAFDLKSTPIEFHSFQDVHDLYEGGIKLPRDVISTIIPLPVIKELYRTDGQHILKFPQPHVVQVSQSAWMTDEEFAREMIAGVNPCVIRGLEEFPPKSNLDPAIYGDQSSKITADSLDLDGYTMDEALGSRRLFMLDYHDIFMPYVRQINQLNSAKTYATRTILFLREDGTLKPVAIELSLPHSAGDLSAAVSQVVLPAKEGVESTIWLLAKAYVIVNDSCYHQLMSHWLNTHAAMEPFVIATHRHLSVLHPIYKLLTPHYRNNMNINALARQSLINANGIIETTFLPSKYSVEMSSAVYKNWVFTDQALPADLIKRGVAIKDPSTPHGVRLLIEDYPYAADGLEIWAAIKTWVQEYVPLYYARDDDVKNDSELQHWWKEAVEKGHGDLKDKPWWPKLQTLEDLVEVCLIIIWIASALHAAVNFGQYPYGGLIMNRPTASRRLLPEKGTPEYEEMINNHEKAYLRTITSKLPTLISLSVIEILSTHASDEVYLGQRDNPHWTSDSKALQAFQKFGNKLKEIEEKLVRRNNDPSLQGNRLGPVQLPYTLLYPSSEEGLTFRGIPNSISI
compound,measurement,setting,value
COC(=O)c1c(C)cc(O)c(C)c1O [LRG 201],RVR (Raoult variance ratio),[1],1.21
same,"LIC (lipoxidase-inhibiting capacity, % inhibition)",lipoxidase (ECI.13.1.13),100%
